Legend:
[1] = tested on: Abutilon theophrasti; experiment: greenhouse post-emergence herbicidal test; type: in vivo, Abutilon theophrasti (velvet leaf); conditions: application rates of 0.25 or 0.125 kg/ha, 2 to 4 weeks
Description: (§1) The cultivation containers used were plastic flower pots containing loamy sand with approximately 3.0% of humus as the substrate. The seeds of the test plants were sown separately for each species.
(§2) For the post-emergence treatment, the test plants were first grown to a height of from 3 to 15 cm, depending on the plant habit, and only then treated with the active compounds which had been suspended or emulsified in water. The test plants were for this purpose either sown directly and grown in the same containers, or they were first grown separately as seedlings and transplanted into the test containers a few days prior to treatment. The application rate for the post-emergence treatment was 0.25 or 0.125 kg of a.s. (active substance)/ha.
(§3) Depending on the species, the plants were kept at 10-25° C. or 20-35° C. The test period extended over 2 to 4 weeks. During this time, the plants were tended, and their response to the individual treatments was evaluated.
(§4) The evaluation was carried out using a scale from 0 to 100. 100 means no emergence of the plants, or complete destruction of at least the aerial parts and 0 means no damage, or normal course of growth.
(§5) The plants used in the greenhouse experiments were of the following species: […]

[2] = tested on: Polygonum persicaria; experiment: greenhouse post-emergence herbicidal test; type: in vivo, Polygonum persicaria (lady's-thumb); conditions: application rates of 0.25 or 0.125 kg/ha, 2 to 4 weeks
Description: as §1, §2, §3, §4, §5

[3] = tested on: Echinochloa crus galli; experiment: greenhouse post-emergence herbicidal test; type: in vivo, Echinochloa crus galli (barnyardgrass); conditions: application rates of 0.25 or 0.125 kg/ha, 2 to 4 weeks
Description: as §1, §2, §3, §4, §5

[4] = tested on: Brachiaria plantaginea; experiment: greenhouse post-emergence herbicidal test; type: in vivo, Brachiaria plantaginea (alexandergrass); conditions: application rates of 0.25 or 0.125 kg/ha, 2 to 4 weeks
Description: as §1, §2, §3, §4, §5

[5] = tested on: Avena fatua; experiment: greenhouse post-emergence herbicidal test; type: in vivo, Avena fatua (wild oat); conditions: application rates of 0.25 or 0.125 kg/ha, 2 to 4 weeks
Description: as §1, §2, §3, §4, §5

[6] = tested on: Chenopodium album; experiment: greenhouse post-emergence herbicidal test; type: in vivo, Chenopodium album (lamb's-quarters); conditions: application rates of 0.25 or 0.125 kg/ha, 2 to 4 weeks
Description: as §1, §2, §3, §4, §5

melting point	SMILES	further results
112 to 120 °C	Cc1c(C(=O)C2=C(O)CC(C)(C)CC2=O)ccc(S(C)(=O)=O)c1C1=NOC2(C)CC12 (centres unmarked) [Compound 2.8]	–
102 °C	Cc1c(C(=O)C2=C(O)CC(C)(C)CC2=O)ccc(S(C)(=O)=O)c1C1=NOC2CC12 (centres unmarked) [Compound 2.1]	post-emergence action [1]: very good; post-emergence action [2]: very good; post-emergence action [3]: very good; post-emergence action [4]: very good; post-emergence action [5]: very good; post-emergence action [6]: very good
101 to 105 °C	CC1(C)CC(=O)C(C(=O)c2ccc(S(C)(=O)=O)c(C3=NOC4CC34)c2Cl)=C(O)C1 (centres unmarked) [Compound 2.7]	–
120 to 127 °C	Cc1c(C(=O)C2=C(O)CC(C)(C)CC2=O)ccc(S(C)(=O)=O)c1C1=NOC2CC12C (centres unmarked) [Compound 2.13]	–
120 to 130 °C	Cc1c(C(=O)C2=C(O)C(C)(C)CCC2=O)ccc(S(C)(=O)=O)c1C1=NOC2(C)CC12 (centres unmarked) [Compound 2.14]	–
90 to 96 °C	Cc1c(C(=O)C2=C(O)C(C)CC(C)C2=O)ccc(S(C)(=O)=O)c1C1=NOC2CC12 (centres unmarked) [Compound 2.3, 2-[2-Methyl-3-(2-oxa-3-azabicyclo[3.1.0]hex-3-en-4-yl)-4-methylsulfonylbenzoyl]-1-hydroxy-4,6-dimethylcyclohex-1-en-3-one]	–
98 to 112 °C	Cc1c(C(=O)C2=C(O)C(C)CC(C)C2=O)ccc(S(C)(=O)=O)c1C1=NOC2(C)CC12 (centres unmarked) [Compound 2.12]	–
100 to 106 °C	CSC1(C)CCC(=O)C(C(=O)c2ccc(S(C)(=O)=O)c(C3=NOC4CC34)c2C)=C1O (centres unmarked) [Compound 2.5]	–

From US6667333B2, “Herbicidal 3-(4,5 dihydroisoxazole- 3 yl) substituted benzoycyclohexenone derivatives” (BASF Aktiengesellschaft, priority 1999, dated 2003)
